Experimental data as given in PMC11160566 (ACS infectious diseases, 2024).

How the values were obtained:
GES-5 carbapenemase [1] = molecular target: T1, GES-5 carbapenemase (Klebsiella pneumoniae, UniProt Q09HD0); experiment: X-ray crystal structure of acyl-enzyme; type: binding
GES-5 carbapenemase [2] = molecular target: T1, GES-5 carbapenemase; experiment: reporter substrate hydrolysis, absorbance at […] nm; type: biochemical

T1 sequence (Q09HD0 19-287): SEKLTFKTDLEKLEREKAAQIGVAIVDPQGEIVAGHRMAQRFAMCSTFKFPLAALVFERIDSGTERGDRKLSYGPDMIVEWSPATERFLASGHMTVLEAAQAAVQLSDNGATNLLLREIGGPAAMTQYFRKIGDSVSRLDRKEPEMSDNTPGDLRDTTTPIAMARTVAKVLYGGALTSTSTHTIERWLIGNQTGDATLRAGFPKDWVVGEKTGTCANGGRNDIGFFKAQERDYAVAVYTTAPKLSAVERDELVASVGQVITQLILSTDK

| SMILES | X-ray crystal structure of acyl-enzyme (1.62 Å) (GES-5 carbapenemase [1]) | reporter substrate hydrolysis, absorbance at 500 nm (GES-5 carbapenemase [2]) |
| --- | --- | --- |
| C[C@@H](O)[C@H]1C(=O)N2C(C(=O)O)=C(S[C@@H]3CN[C@H](C(=O)N(C)C)C3)[C@H](C)[C@H]12 [MEM, meropenem] | The 3D structures of the acyl-enzyme complexes of GES-5-meropenem and GES-5-NA-1-157 were determined by X-ray crystallography |  |
| O=C(Cc1cccs1)N[C@@H]1C(=O)N2C(C(=O)O)=C(/C=C/c3ccc([N+](=O)[O-])cc3[N+](=O)[O-])CS[C@H]12 [nitrocefin] |  | The progress curves for nitrocefin hydrolysis by GES-5 in the presence of NA-1-157 |
